Source: article PMC13576449, “Small-Molecule Activators of PRMT1: Discovery, SAR Analyses, and Proapoptotic Effects in Pancreatic Cancer Cells” (Journal of Medicinal Chemistry, 2026)

What was measured:
[1] = Tolerability, body weight monitoring of xenograft mice; details: female athymic nude mice, 150 mg/kg TR-07 daily, 10 mg/kg gemcitabine every second day, 2 weeks
FLAG-tagged PRMT3 = target: T1, FLAG-tagged PRMT3 (Homo sapiens, UniProt O60678); assay: Fluorescence-based in vitro PRMT assay (F-PRMT assay), PRMT3; assay type: biochemical; details: for Experimental result (PRMT3): vs solvent control = 100%
T1 construct: The complete ORFs of human PRMT3 and PRMT6 were inserted; made in house; host or cells: Sf9 insect cells (baculovirus)
T1 sequence (O60678 whole entry): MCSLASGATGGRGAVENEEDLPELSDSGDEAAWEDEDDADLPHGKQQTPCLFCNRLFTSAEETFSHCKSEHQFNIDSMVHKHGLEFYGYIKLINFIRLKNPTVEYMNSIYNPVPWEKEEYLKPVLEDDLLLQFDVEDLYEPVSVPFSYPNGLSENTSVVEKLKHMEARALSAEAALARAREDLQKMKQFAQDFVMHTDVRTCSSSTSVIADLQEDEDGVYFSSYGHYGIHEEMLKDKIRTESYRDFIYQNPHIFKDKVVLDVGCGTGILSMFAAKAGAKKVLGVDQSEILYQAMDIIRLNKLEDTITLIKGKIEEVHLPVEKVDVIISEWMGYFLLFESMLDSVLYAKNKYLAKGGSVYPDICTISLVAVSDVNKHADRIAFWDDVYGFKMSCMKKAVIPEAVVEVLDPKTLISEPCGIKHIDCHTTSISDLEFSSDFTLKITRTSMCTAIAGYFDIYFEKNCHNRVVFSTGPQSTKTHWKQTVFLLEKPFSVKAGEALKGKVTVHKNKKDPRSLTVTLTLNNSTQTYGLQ
Procedure, shortened: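 Baculovirus/Sf9-expressed FLAG-PRMTs (human PRMT3, PRMT6; mouse PRMT4), anti-FLAG purified and used bead-bound, methylated Bz-Arg-AMC with SAM for 2 h at 37 °C, 1,000 rpm. Technical triplicates; no-SAM negative controls.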

Compound | tolerability (adverse or systemic toxic effects, body weights) [1] | effect on PRMT3 activity (in words) (FLAG-tagged PRMT3; 100 μM compound) | Experimental result (PRMT3) (FLAG-tagged PRMT3; Table 1, 100 μM compound, 2 μM PRMT, n = 3, racemates used) | Experimental result (PRMT3) (FLAG-tagged PRMT3; Table S3, 100 µM compound, n≥3)
CN(C)Cc1cccc(CN/C=C2\C(=O)NC(=O)c3ccccc32)c1.Cl [TR-07, (Z)-1-[3-({[(1,3-Dioxo-2,3-dihydroisoquinolin-4(1H)-lidene)methyl]amino}methyl)phenyl]-N,N-dimethylmethanaminium chloride] | well tolerated | neither positively nor negatively influencing | PRMT3 n.e. (Compounds, which did not significantly affect the catalytic activity (less than ±6% change or not significant p-value), are marked with [drawing 8] (no effect)) | n.e. (did not significantly affect the catalytic activity (less than ±6% change or not significant p-value), are marked with n.e. (no effect))
(Z)-2-(2-{[(1,3-Dioxo-2,3-dihydroisoquinolin-4(1H)-ylidene)methyl]amino}phenyl)-N,N-dimethylethan-1-aminium chloride [ICTR-059] |  | concomitant PRMT3 activation |  | 
